Numbering of substitutions follows the chain as printed.
Key:
[1] = target: T1, AT1 wild-type receptor (Rattus norvegicus, UniProt P25095); assay: IP production assay in COS7 cells expressing AT1 wild-type receptor; type: cell-based; conditions: AT1 wild-type receptor, COS7 cells; 1 µM ligands or 0.1 µM Ang II, 30 min; n = 5; vs. (-)
T1 construct: expressed in transfected cells; host or cells: COS7
T1 sequence (P25095 1-359): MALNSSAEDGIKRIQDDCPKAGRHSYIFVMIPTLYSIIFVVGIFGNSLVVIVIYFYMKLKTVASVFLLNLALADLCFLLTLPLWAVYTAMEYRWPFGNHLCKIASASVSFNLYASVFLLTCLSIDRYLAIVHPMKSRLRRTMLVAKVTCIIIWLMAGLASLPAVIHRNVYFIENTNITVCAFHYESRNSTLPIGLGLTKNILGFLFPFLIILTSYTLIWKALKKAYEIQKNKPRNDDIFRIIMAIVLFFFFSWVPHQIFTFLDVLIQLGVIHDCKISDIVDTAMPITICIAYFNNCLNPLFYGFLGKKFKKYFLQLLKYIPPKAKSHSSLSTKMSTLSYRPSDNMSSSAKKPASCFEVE
Procedure: (§1) The synthetic rat AT1 receptor gene, which was cloned in the shuttle expression vector pMT-2, was used for expression and mutagenesis, as described previously. […] In the experiments, cells were grown without a cell-growth supplement. To express the AT1 receptor protein, 10 µg of purified plasmid DNA per 10^7 cells was used in the transfection. Wild-type and mutated AT1 receptors were transiently transfected into cells using Lipofectamine 2000 liposomal reagent (Roche Applied Science, Penzberg, Germany). Cells were plated and grown and were 70–90% confluent at the time of transfection. We incubated plasmid DNA (10 µg)–lipid (10 µL) complexes for 5 min at room temperature and added and incubated the complexes with cells for 24 h. We then analyzed the parameters in transfected cells. […] Transfected cells that had been cultured for 48–72 h were harvested. Cell membranes were prepared using the nitrogen Parr bomb disruption or freeze–thaw methods.
(§2) Ligand (such as agonist or antagonist)-induced IP production through the AT1 receptor in transfected COS7 cells transiently expressing the AT1 receptor was measured to evaluate cell signaling as a second messenger for controlling blood pressure, since the increases in the intracellular Ca^2+ concentration were the result of IP accumulation, which indicated vasoconstriction. As a surrogate model with higher levels of AT1 receptor expression, COS7 cells are suitable for IP measurement because it is easy to detect differences in IP production. Cells were labeled for 24 h with [^3H]-myoinositol at 37 °C in DMEM containing 10% FBS. Next, the cells were washed with buffer 3 times and incubated with a medium containing 10 mM LiCl for 20 min; 0.1 µM Ang II or 1 µM ligands were added and incubation was continued for another 30 min at 37 °C. After incubation, the medium was removed, and total soluble IP was extracted from the cells using the perchloric acid extraction method, as described previously. Cells were plated at a field density of 5 × 10^3 cells/cm^2 in 60 mm dishes and cultured in a fresh growth medium at 37 °C in a DMEM 5% CO2 incubator. […] The culture medium was changed 48 h after transfection and 1.5 mL of 1 μCi/mL of [^3H]-myoinositol was added to each 60-mm dish at 37 °C in DMEM containing 10% FBS. After labeling, the cells were washed with buffer 3 times and incubated with a medium containing 10 mM LiCl for 20 min. The indicated concentration of ligands was added and incubation was continued for an additional 30 min at 37 °C. After incubation, the medium was removed, and total soluble IP was extracted from the cells using the perchloric acid extraction method. Total IP production was expressed as the sum of radioactivity, as described previously.

[2] = target: T2, AT1 L112A receptor (Rattus norvegicus, UniProt P25095, L112A); assay: IP production assay in COS7 cells expressing AT1-L112A receptor; type: cell-based; conditions: 1 µM ligands or 0.1 µM Ang II, 30 min, n = 5, vs. (-)
T2 construct: expressed in transfected cells; host or cells: COS7
T2 sequence (P25095 1-359 L112A): T1 sequence (P25095 1-359) with L112A
Procedure: as §1, §2

[3] = target: T3, AT1 Q257A receptor (Rattus norvegicus, UniProt P25095, Q257A); assay: IP production assay in COS7 cells expressing AT1-Q257A receptor; type: cell-based; conditions: 1 µM ligands or 0.1 µM Ang II, 30 min, n = 5, vs. (-)
T3 construct: expressed in transfected cells; host or cells: COS7
T3 sequence (P25095 1-359 Q257A): T1 sequence (P25095 1-359) with Q257A
Procedure: as §1, §2

[4] = target: T1, AT1 wild-type receptor; assay: Immunoblotting of ERK 1/2 activation in COS7 cells overexpressing AT1 wild-type receptor; type: cell-based; conditions: AT1 wild-type receptor, COS7 cells; 1 µM ligands or 0.1 µM Ang II, 10 min; n = 5; vs. (-)
Procedure: as §1
(§3) In in vitro studies, ERK 1/2 activation by 1 µM ligands or 0.1 µM Ang II incubated for 10 min was measured using COS7 cells that overexpressed AT1 wild-type and mutant receptors. ERK activity was measured in cells maintained for 18 h in DMEM containing 0.1% serum. At the end of the stimulation, the culture medium was removed by aspiration, the cells were washed with ice-cold phosphate-buffered saline, and the dishes were frozen in liquid nitrogen. The cells were scraped using a scraper after melting, and the scraped cells were transferred to a tube. We homogenized the cells in lysis buffer plus protease inhibitors and determined the protein concentration using the bicinchoninic acid method. […] We fractionated total proteins using sodium dodecyl sulfate polyacrylamide gel electrophoresis; we then transferred the proteins to a Hybond nitrocellulose membrane and blocked the blotted membranes with 10% bovine serum albumin in tris-buffered saline buffer (50 mM Tris–HCl pH 7.6, 150 mM NaCl) for 1 h at room temperature. […] An enhanced chemiluminescent substrate system (Amersham, Buckinghamshire, UK) was used. The signal was independently quantified by digital image analysis (ImageJ, National Institutes of Health, Bethesda, MD, USA).

[5] = target: T2, AT1 L112A receptor; assay: Immunoblotting of ERK 1/2 activation in COS7 cells overexpressing AT1-L112A receptor; type: cell-based; conditions: 1 µM ligands or 0.1 µM Ang II, 10 min, n = 5, vs. (-)
Procedure: as §1, §3

[6] = target: T3, AT1 Q257A receptor; assay: Immunoblotting of ERK 1/2 activation in COS7 cells overexpressing AT1-Q257A receptor; type: cell-based; conditions: 1 µM ligands or 0.1 µM Ang II, 10 min, n = 5, vs. (-)
Procedure: as §1, with “Cell membranes were prepared using the nitrogen Parr bomb disruption or freeze–thaw methods.” left out
In in vitro studies, ERK 1/2 activation by 1 µM ligands or 0.1 µM Ang II incubated for 10 min was measured using COS7 cells that overexpressed AT1 wild-type and mutant receptors. ERK activity was measured in cells maintained for 18 h in DMEM containing 0.1% serum. […] We homogenized the cells in lysis buffer plus protease inhibitors and determined the protein concentration using the bicinchoninic acid method. […] The signal was independently quantified by digital image analysis (ImageJ, National Institutes of Health, Bethesda, MD, USA).

[7] = target: T1, AT1 wild-type receptor; assay: Competition binding study, 125I-[Sar1,Ile8]Ang II, AT1 wild-type receptor; conditions: competition with 125I-[Sar1,Ile8]Ang II, n = 3, mean ± standard error, read-out: Binding affinity (Kd)
Procedure: (§4) The synthetic rat AT1 receptor gene, which was cloned in the shuttle expression vector pMT-2, was used for expression and mutagenesis, as described previously. COS7 cells (No. CRL-1651, ATCC, Manassas, VA, USA) were cultured in 10% fetal bovine serum (FBS) and penicillin- and streptomycin-supplemented Dulbecco’s modified Eagle’s essential medium (PS-DMEM) in 5% CO2 at 37 °C. In the experiments, cells were grown without a cell-growth supplement. To express the AT1 receptor protein, 10 µg of purified plasmid DNA per 10^7 cells was used in the transfection. […] We then analyzed the parameters in transfected cells. […]
(§5) The Kd (nM) values of receptor binding were determined with ^125I-[Sar^1, Ile^8]AngII-binding experiments under equilibrium conditions. Binding kinetics were determined following the methods described in the literature. […] Ang II was determined in the presence of a high concentration (10^−6 M) of unlabeled [Sar^1, Ile^8]. […] The radioactivity trapped on the filters was quantified using an automatic γ-counter. The percentage (%) of specific binding of ^125I-[Sar^1, Ile^8]Ang II was calculated using the following formula: 100 × (% total binding of ^125I-[Sar^1, Ile^8]Ang II—nonspecific binding of ^125I-[Sar^1, Ile^8]Ang II)/(% total binding of ^125I-[Sar^1, Ile^8]Ang II).

[8] = target: T2, AT1 L112A receptor; assay: Competition binding study, 125I-[Sar1,Ile8]Ang II, AT1 L112A receptor; conditions: competition with 125I-[Sar1,Ile8]Ang II, n = 3, mean ± standard error, read-out: Binding affinity (Kd)
From the text: (§6) We mutated four amino acids in transmembrane (TM) III, VI, and VII in the AT1 receptor (L112A, Q257A, Y292A, and N295A receptors). We determined the mutation sites of the AT1 receptor according to ARB, which produced olmesartan derivatives with different interactions and functions toward the AT1 receptor, as previously reported by Zhang et al., since the additional 4-hydroxybenzyl groups of R781253 and R794847 were predicted to extend to a sub-pocket on the bottom of the AT1 receptor ligand-binding pocket consisting of Leu^112 and Gln^257. In addition, since the biased ligand TRV027 induced changes near the NPxxY motif in TM domain 7 that are related to receptor activation, Tyr^292 and Asn^295 in the AT1 receptor were mutated.
as §4, §5

[9] = target: T3, AT1 Q257A receptor; assay: Competition binding study, 125I-[Sar1,Ile8]Ang II, AT1 Q257A receptor; conditions: competition with 125I-[Sar1,Ile8]Ang II, n = 3, mean ± standard error, read-out: Binding affinity (Kd)
From the text: as §6
(§7) The synthetic rat AT1 receptor gene, which was cloned in the shuttle expression vector pMT-2, was used for expression and mutagenesis, as described previously. COS7 cells (No. CRL-1651, ATCC, Manassas, VA, USA) were cultured in 10% fetal bovine serum (FBS) and penicillin- and streptomycin-supplemented Dulbecco’s modified Eagle’s essential medium (PS-DMEM) in 5% CO2 at 37 °C. In the experiments, cells were grown without a cell-growth supplement. To express the AT1 receptor protein, 10 µg of purified plasmid DNA per 10^7 cells was used in the transfection. Wild-type and mutated AT1 receptors were transiently transfected into cells using Lipofectamine 2000 liposomal reagent (Roche Applied Science, Penzberg, Germany). Cells were plated and grown and were 70–90% confluent at the time of transfection. We incubated plasmid DNA (10 µg)–lipid (10 µL) complexes for 5 min at room temperature and added and incubated the complexes with cells for 24 h. We then analyzed the parameters in transfected cells. Cell viability was >95% according to trypan blue exclusion analysis in the control experiments. Transfected cells that had been cultured for 48–72 h were harvested. Cell membranes were prepared using the nitrogen Parr bomb disruption or freeze–thaw methods.
(§8) The Kd (nM) values of receptor binding were determined with ^125I-[Sar^1, Ile^8]AngII-binding experiments under equilibrium conditions. Binding kinetics were determined following the methods described in the literature. We carried out binding by using ^125I-[Sar^1, Ile^8] AngII (2200 Ci/mmol) and an increasing concentration (10^−11–10^−5 M) of each unlabeled compound. Nonspecific binding of ^125I-[Sar^1, Ile^8] Ang II was determined in the presence of a high concentration (10^−6 M) of unlabeled [Sar^1, Ile^8]. Next, the incubation mixture was separated by vacuum filtration through Whatman GF/C glass filters (Disposable Filter Funnels Grade GF/C, GE Healthcare), and presoaked with 0.1% polyethylenimine. The filter was washed with 3 mL of ice-cold stop buffer (25 mM Tris–HCl, pH 7.4, 1 mM MgCl2). The radioactivity trapped on the filters was quantified using an automatic γ-counter. The percentage (%) of specific binding of ^125I-[Sar^1, Ile^8]Ang II was calculated using the following formula: 100 × (% total binding of ^125I-[Sar^1, Ile^8]Ang II—nonspecific binding of ^125I-[Sar^1, Ile^8]Ang II)/(% total binding of ^125I-[Sar^1, Ile^8]Ang II).

[10] = target: T4, AT1 Y292A receptor (Rattus norvegicus, UniProt P25095, Y292A); assay: Competition binding study, 125I-[Sar1,Ile8]Ang II, AT1 Y292A receptor; conditions: competition with 125I-[Sar1,Ile8]Ang II, n = 3, mean ± standard error, read-out: Binding affinity (Kd)
T4 construct: expressed in transfected cells; host or cells: COS7
T4 sequence (P25095 1-359 Y292A): T1 sequence (P25095 1-359) with Y292A
From the text: as §6, §7, §8

[11] = target: T5, AT1 N295A receptor (Rattus norvegicus, UniProt P25095, N295A); assay: Competition binding study, 125I-[Sar1,Ile8]Ang II, AT1 N295A receptor; conditions: competition with 125I-[Sar1,Ile8]Ang II, n = 3, mean ± standard error, read-out: Binding affinity (Kd)
T5 construct: expressed in transfected cells; host or cells: COS7
T5 sequence (P25095 1-359 N295A): T1 sequence (P25095 1-359) with N295A
From the text: as §6, §7, §8

[12] = tested on: AT1 receptor; design: method as in PMID 15785012; conditions: cited from earlier work
[13] = tested on: human coronary artery smooth muscle cells; design: method as in PMID 15785012; conditions: as well as a stably expressed AT1 receptor cell line; cited from earlier work

For “angiotensin II [Ang II, reference compound]”, the “Effect on IP production” value [1] was “significantly increased IP production”, the “Effect on IP production” value [2] was “significantly increased IP production” and the “Effect on IP production” value [3] was “significantly increased IP production”. For the same molecule, the ERK1/2 activation [4] was “significantly activated ERK1/2”, the ERK1/2 activation [5] was “significantly activated ERK1/2” and the ERK1/2 activation [6] was “significantly activated ERK1/2”.
In the case of `CC[C@H](C)[C@H](NC(=O)[C@@H]1CCCN1C(=O)[C@H](Cc1c[nH]cn1)NC(=O)[C@@H](NC(=O)[C@H](Cc1ccc(O)cc1)NC(=O)[C@@H](NC(=O)[C@H](CCCN=C(N)N)NC(=O)CNC)C(C)C)[C@@H](C)CC)C(=O)O` [[Sar^1,Ile^8]Ang II, [Sar^1, Ile^8]Ang II, reference compound], the Kd [7] is reported as 0.8 ± 0.4 nM, the Kd [8] is reported as 1.3 ± 0.3 nM and the Kd [9] is reported as 3.3 ± 1.5 nM. The Kd [10] was 2.1 ± 0.9 nM and the Kd [11] was 7 ± 2 nM.
In the case of [Sar^1, Ile^4, Ile^8]Ang II, the “Gq-dependent inositol phosphate (IP) production” value [12] is given as “did not increase” and the “Gq-independent ERK 1/2 activation” value [13] is given as “still activated”.

Reference: PMC10216478, “Development of a Non-Peptide Angiotensin II Type 1 Receptor Ligand by Structural Modification of Olmesartan as a Biased Agonist” (Biomedicines, 2023)
